According to patent publication US8318743B2, “Medicament for the enhancement of cognitive function and neuroprotection” (Egis Gyogyszergyar Nyilvanosan Mukodo Reszvenytarsasag, priority 2006, dated 2012):
Marks after values point to notes of the source that are not given here.

Columns and labels:
[1] = test system: male gerbils; assay: global cerebral ischemia model by bilateral carotid artery occlusion, hippocampal CA1 neuronal damage; format: in vivo, gerbil; details: for proportion of the neuronal damage in CA1 region of the hippocampus / Effect %: 0.1 mg/kg ip.; for CA 1 lesion: 0.1 mg/kg ip. 45 minutes after surgery, average score on scale 0-6, four days after 3 min bilateral carotid occlusion; for Effect %: CA1 lesion score versus control animals
Description: The neuroprotective effect of 4-chloro-5-{2-[4-(6-fluoro-1,2-benz[d]isoxazole-3-yl)piperidin-1-yl]ethyl-amino}-2-methyl-3-(2H)pyridazinone of the Formula (I) was tested in gerbils by global cerebral ischemia model by bilateral occlusion of the carotid artery and in rats by focal cerebral ischemia model via the permanent occlusion of the central cerebral artery. Risperidone[3-(2-(4-(6-fluoro-1,2-benz[d]isoxazole-3-yl)-1-piperidinyl)ethyl)-6,7,8,9-tetrahydro-2-methyl-4H-pyrido[1,2-a]pyrimidin-4-one] of the Formula (II) was used as reference compound.
The tests in the global cerebral ischemia model were performed in male gerbils weighing 50-80 g. During surgery, the animals were anaesthetized with ether, and the carotid arteries were set free in the paratracheal region by a ventral incision in the central region. The carotid arteries were separated from the vagosympatic nerve-trunk and were occluded for 3 minutes using artery forceps and subsequently released. The body temperature of the animals was checked during surgery and was kept in the normal range using an infrared lamp (37.5±0.5° C.). The test substance 4-chloro-5-{2-[4-(6-fluoro-1,2-benz[d]isoxazole-3-yl)piperidin-1-yl]ethyl-amino}-2-methyl-3-(2H)pyridazinone of the Formula (I) and the reference substance risperidone of the Formula (II) were administered in a dose of 0.1 mg/kg intraperitoneally 45 minutes after surgery.
Four days after surgery, animals were anaesthetised using pentobarbital-Na (60 mg/kg ip., 10 ml/kg) and the brains were perfused with saline thorough the left ventricle. The perfusion was continued for an additional 30 minutes using fixative solution (200 ml/animal). The fixative solution contained 0.1% of glutaraldehyde, 4% of paraformaldehyde and 0.2% of picric acid in 0.1 M phosphate buffer (pH 7.4). After perfusion, the brains were removed from the skulls and were stored in the above-mentioned fixative solution for at least one week at 4° C. in a refrigerator.
The cerebral part containing the dorsal hippocampus has been dissected into 60-μm thick coronal sections using a freezing microtome. The sections were washed four times by shaking for 30 minutes in 0.1 M phosphate buffer (pH 7.4) during which the cerebral sections were floating in the washing solution. Subsequently the cerebral sections were stained using silver impregnation. The staining by the silver impregnation method comprises (a) immersing the sample into a preparatory solution twice for 5 minutes (the preparatory solution comprises aqueous 2% sodium hydroxide and 0.875% ammonium hydroxide solution); (b) immersing the sample into the impregnating solution for 10 minutes (solution of 0.875% ammonium hydroxide and 0.5% silver nitrate in water), (c) washing the sample twice for 2 minutes and finally for one minute in the solution of 0.5% of sodium carbonate and 0.01% ammonium nitrate in aqueous 29.1% ethanol); (d) development for one minute by immersing the section into a development solution (1-1.5% formaldehyde and 0.01% ammonium nitrate in 9.9% ethanol), (e) fixation three times for three minutes each in 0.5% acetic acid solution. The stained cerebral sections were placed into 0.1 M phosphate buffer (pH 7.4) and subsequently chromic gelatine, mounted on slides and dehydrated (dried), treated with xylene for 10 minutes and the cover plates were attached using DPX histological adhesive (Fluka).
The bilateral neuronal damage in the CAl region of the hippocampus have been evaluated on a six-score scale as follows: 0—no damage observed; 1—0-10% neuronal damage; 2—10-30% neuronal damage; 3—30-50% neuronal damage; 4—50-70% neuronal damage; 5—70-90% neuronal damage; 6—90-100% neuronal damage. The average scores measured in the treated group were expressed in the percentage of the average scores observed in the case of the control animals. The statistical evaluation was carried out by non-parametric Mann-Whitney U-test.

[2] = test system: male Wistar rats; assay: passive avoidance test (step-through); format: in vivo, rat; details: for effect on memory in passive avoidance: 0.005 mg/kg p.o.
Description: The passive avoidance tests were carried out in male Wistar rats weighing 200 to 220 g (Charles River, Budapest). The experimental animals were kept in a room having a circadian light-dark periods of 12-12 hours. The light was switched on at 6:00 am. The relative humidity of the room was 60±10%.
The tests were carried out in a so-called step-through type apparatus with five channels which is suitable for testing of passive avoidance learning.
The apparatus comprises two plexiglass boxes of 20×20×16 cm. One of the boxes is clear, the other one is non-transparent, black-painted. There exists a separating wall between the boxes having an opening of 7.5×8 cm. The opening can be opened or closed by a computer-controlled shutter door. The transition of the rat from one box into the other is detected by two parallel photocell rows and the door is automatically shut after the transition of the animal. The floor of the black-painted box consists of stainless steel rods equipped with an electrical circuit suitable for the delivery of an electric shock. There is a 10-W bulb above the door at the light (transparent) side of the apparatus.
The tests were carried out on two subsequent days with a 24-hour time difference.
The first part of the test is the so-called acquisition period, wherein the animal is able to gain specific information characteristic to the situation (upon entry into the dark box, an electric shock is delivered). The second part of the test is the so-called retention period. In this stage, the ability of the animal to remember the information which was collected in the first part is tested (upon entry into the dark part, an electric shock will be delivered, therefore it is less traumatic to stay in the light compartment).
On the first day of the testing (acquisition period), the numbered animals are placed into the clear compartment of the apparatus while the shutter door is closed. After 30 seconds, the door is opened and the animal could freely enter the dark box. At the same time, the clock for the measurement of the transition latency was started. The transition latency is the period of time which elapses between the opening of the shutter door and the transition of the animal from the light compartment into the dark one. When the animal entered the dark box, the clock measuring the latency is stopped. 3 seconds after the entry into the dark compartment, an electric shock of 0.4 mA is delivered for 10 seconds to the animals in the form of a paw shock. Animals belonging to the absolute control groups were not delivered a paw shock. After the electric shock, the animals were immediately removed from the apparatus. A 180-sec period was available for the animals to enter the dark compartment. […] This is the essence of acquisition.
During the second-day test (retention) after 24 hours, the animals were placed into the apparatus again. The subsequent part of the procedure was identical to that performed on the first day with the only difference that except for one group, no electric shock was delivered to the animals. Similarly to the first day, 180 sec was provided for the animals to enter the dark box.
During the tests directed to the determination of the effect of 4-chloro-5-{2-[4-(6-fluoro-1,2-benz[d]isoxazole-3-yl)piperidin-1-yl]ethyl-amino}-2-methyl-3-(2H)pyridazinone of the Formula (I), the experimental animals were treated with the test substance and the reference substance or with vehicle (0.4% methylcellulose) on the second day, 60 minutes before placing the animals into the apparatus. The treatment was carried out orally at a dose of 0.005 mg/kg in a volume of 5 ml/kg.
The statistical evaluation was carried out with multiple way variance analysis. The differences between groups were analyzed by Duncan-test.

[3] = test system: rats; assay: object recognition test; format: in vivo, rat
Text: The object recognition test in rats is based on the observation that when animals are encountered with unknown environment, they scour around and discover the available area. They act similarly in case of unknown objects arranged within their area.
In the present experimental arrangement, one day prior to the actual testing day, animals are placed in a box where they have two minutes to get acquainted with the surroundings. On the first day of the experiment, two identical objects (in the present arrangement, a plastic rinse bottle and a glass bottle) are placed in the box and the length of the period is determined during which the animals spend time while examining the two objects. The length of test period is 4-5 minutes. The difference between the length of the time periods spent with the examination of each object is the so-called discrimination index.
On the second day (24 hours after the first testing period) of the experiment, two different objects are placed in the box, among which one is known for the animals and the other is unknown.
In the case when a memory-enhancing drug is administered to the animals on the first day (e.g. orally, 60 minutes prior to testing), the animals are able to recall the already known objects better and the discrimination index is increased in favour of the unknown object.

[4] = 0.4 mA/10 sec electric shock + treatment 0.005 mg/kg p.o. 60 minutes before test
[5] = treatment 0.005 mg/kg p.o. without electric shock

## Cn1ncc(NCCN2CCC(c3noc4cc(F)ccc34)CC2)c(Cl)c1=O [Formula (I), 4-chloro-5-{2-[4-(6-fluoro-1,2-benz[d]isoxazole-3-yl)piperidine-1-yl]ethyl-amino}-2-methyl-3-(2H)pyridazinone]
[1]
  proportion of the neuronal damage in CA1 region of the hippocampus: significantly decreased
  CA 1 lesion: 2.80**
  Effect %: −46%
[2]
  effect on memory in passive avoidance: significantly improved the memory
[2]; [4]
  Transition latency First Day sec ± SE: 155.9 ± 15.5^++ sec
[2]; [5]
  Transition latency First Day sec ± SE: 21.2 ± 8.8 s
[3]; 0.01 mg/kg
  memory functions in object recognition: significantly enhanced
[3]; 0.01 mg/kg p.o., Day 1
  Discrimination index(s) Day 1: 0.4 ± 0.8 s
[3]; 0.01 mg/kg p.o., Day 2 (24 hours after first testing)
  Discrimination index(s) Day 2: 10.9 ± 1.4 s

## Cc1nc2n(c(=O)c1CCN1CCC(c3noc4cc(F)ccc34)CC1)CCCC2 [Risperidone, 3-(2-(4-(6-fluoro-1,2-benz[d]isoxazole-3-yl)-1-piperidinyl)-ethyl)-6,7,8,9-tetrahydro-2-methyl-4H-pyrido[1,2-a]pyrimidin-4-one, reference compound]
[1]
  proportion of the neuronal damage in CA1 region of the hippocampus: ineffective
  CA 1 lesion: 4.67
  Effect %: −2%
[2]
  effect on memory in passive avoidance: did not exhibit any effect
[2]; [4]
  Transition latency First Day sec ± SE: 85.5 ± 22.0 s
[2]; [5]
  Transition latency First Day sec ± SE: 36.1 ± 15.9 s
